Patent US20010018454A1, “Method for protecting wood and wooden articles from fungal infection” (priority 2000, published 2001)
Read-outs that look alike come from different tables or passages of the source.

Legend:
fungi = conditions: cited from earlier work
wood-damaging fungi = conditions: cited from earlier work
blue stain infection = tested on: blue stain infection
Description: Immersion Impregnation with Aqueous Potassium Sorbate Solution Air-dry pine boards are dipped into a solution of 30% potassium sorbate in water for […] of the surface. After the treatment they are air dried.
Air-dried pine boards are, as in example 1, dipped into a solution of 30% potassium sorbate in a mixture of 75% by volume of water and 25% by volume of 1,2-propanediol, further treated and stored.
Air-dried pine boards are sprayed with a spraying pistol with a solution of 20% potassium sorbate in water until the surface is uniformly wet. The boards are then allowed to dry and are stored as in example 1.

molds = conditions: 35° C. saturated water vapor
Description: Two pinewood boards in each case are dipped into potassium sorbate solution (see table 1 for concentrations) and stored in a saturated water vapor atmosphere at 35° C. In parallel with this, in each case two pinewood boards, after the dipping, were additionally dirtied with soil on the surface in order to achieve greater surface contamination with molds. The boards were individually packed in film in order to exclude cross contaminations and regularly visually examined for fungal infection.

## C/C=C/C=C/C(=O)[O-].[Na+] [sodium sorbate]
fungi; generally, even after a few days
  Protection of bamboo against fungal infection: infection with fungi
fungi; pH 3.0
  Protection of bamboo against fungal infection: active

## C/C=C/C=C/C(=O)[O-].C/C=C/C=C/C(=O)[O-].[Zn+2] [zinc salt of sorbic acid]
wood-damaging fungi
  Activity as wood preservative: inactive

## C/C=C/C=C/C(=O)[O-].[K+] [potassium sorbate]
Blue stain infection; pine boards dipped in 30% potassium sorbate in 75% by volume water / 25% by volume 1,2-propanediol, stored as in example 1
  Fungal infection after storage: completely free from fungal infection
Blue stain infection; pine boards dipped in 30% potassium sorbate in water, stored in the open three weeks next to untreated boards
  Fungal infection after storage: remain free from fungal infection
Blue stain infection; pine boards sprayed with 20% potassium sorbate in water, stored as in example 1
  Fungal infection after storage: corresponds to that of example 1
molds; V1: dwell time 10 min, 1 % by weight solution, without soil
  Fungal infection: no/after 81 days
molds; V2: dwell time 10 min, 2 % by weight solution, without soil
  Fungal infection: no/after 81 days
molds; V3: dwell time 10 min, 5 % by weight solution, without soil
  Fungal infection: no/after 81 days
molds; V4: dwell time 5 min, 10 % by weight solution, without soil
  Fungal infection: no/after 81 days
molds; V5: dwell time 10 min, 1 % by weight solution, with soil
  Fungal infection: little/from day 43
molds; V6: dwell time 10 min, 2 % by weight solution, with soil
  Fungal infection: little/from day 53
molds; V7: dwell time 10 min, 5 % by weight solution, with soil
  Fungal infection: no/after 81 days
molds; V8: dwell time 5 min, 10 % by weight solution, with soil
  Fungal infection: no/after 81 days
